pIC50: −log10 of the molar value. Where two headings read alike, the source gives them in different places.
What was measured:
Type in all cases: biochemical
DPP4 = DPP4 (Homo sapiens, UniProt P27487); experiment: DPP4 inhibition, fluorogenic substrate H-Gly-Pro-AMC; design: purchased R&D Systems
recombinant human DPP9 = biological target: T1, recombinant human DPP9 (Homo sapiens, UniProt Q86TI2); experiment: DPP9 inhibition, fluorogenic substrate H-Gly-Pro-AMC
T1 construct: purchased R&D Systems
Procedure, shortened: (§1)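 Enzyme per reaction: 50 ng DPP9, 20 ng DPP8, 10 ng each DPP7 and PREP. Compounds were serially diluted (8 points, up to 0.5% DMSO) and incubated at 25 °C.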

Recombinant human FAP = biological target: T2, Recombinant human FAP (Homo sapiens, UniProt Q12884); experiment: FAP inhibition, fluorogenic substrate Z-Gly-Pro-AMC
T2 construct: purchased R&D systems
T2 sequence (Q12884 1-760): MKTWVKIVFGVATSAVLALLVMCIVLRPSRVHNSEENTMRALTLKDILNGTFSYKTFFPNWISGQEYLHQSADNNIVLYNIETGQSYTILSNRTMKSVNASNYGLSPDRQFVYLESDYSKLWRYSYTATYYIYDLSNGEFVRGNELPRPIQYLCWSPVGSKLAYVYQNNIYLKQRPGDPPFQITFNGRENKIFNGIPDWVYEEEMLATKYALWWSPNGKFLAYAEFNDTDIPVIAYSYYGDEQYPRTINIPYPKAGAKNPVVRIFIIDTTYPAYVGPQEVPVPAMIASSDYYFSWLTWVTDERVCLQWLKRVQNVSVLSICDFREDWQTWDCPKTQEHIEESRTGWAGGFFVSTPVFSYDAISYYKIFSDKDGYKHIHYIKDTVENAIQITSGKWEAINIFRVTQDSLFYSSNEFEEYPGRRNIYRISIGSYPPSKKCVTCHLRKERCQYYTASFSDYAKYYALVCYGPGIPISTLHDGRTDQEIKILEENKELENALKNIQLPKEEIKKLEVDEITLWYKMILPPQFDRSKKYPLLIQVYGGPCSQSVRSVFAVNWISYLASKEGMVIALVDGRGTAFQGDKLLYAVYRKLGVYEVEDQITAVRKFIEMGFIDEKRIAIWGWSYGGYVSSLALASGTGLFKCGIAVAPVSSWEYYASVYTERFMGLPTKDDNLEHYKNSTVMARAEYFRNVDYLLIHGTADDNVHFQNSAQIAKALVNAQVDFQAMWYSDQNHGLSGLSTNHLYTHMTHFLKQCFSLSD
Procedure, shortened: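 Recombinant human FAP, 10 ng per reaction, in 50 mM Tris pH 7.5 with 1 M NaCl and 1 mg/ml BSA at 25° C; substrate Z-Gly-Pro-AMC, ≤0.1% DMSO. AMC fluorescence read at ex 380/em 460 nm; % signal-rate decrease vs no-inhibitor control, 8-point curves fitted to a four-parameter logistic for IC50.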

recombinant human DPP8 = biological target: T3, recombinant human DPP8 (Homo sapiens, UniProt Q6V1X1); experiment: DPP8 inhibition, fluorogenic substrate Z-Ala-Pro-AMC
T3 construct: purchased PBS Bioscience
Procedure, shortened: as §1

recombinant human PREP = biological target: T4, recombinant human PREP (Homo sapiens, UniProt P48147); experiment: PREP inhibition, fluorogenic substrate Z-Gly-Pro-AMC; settings: Inhibitory Activity (IC50, nM) PREP
T4 construct: purchased R&D System
T4 sequence (P48147 1-710): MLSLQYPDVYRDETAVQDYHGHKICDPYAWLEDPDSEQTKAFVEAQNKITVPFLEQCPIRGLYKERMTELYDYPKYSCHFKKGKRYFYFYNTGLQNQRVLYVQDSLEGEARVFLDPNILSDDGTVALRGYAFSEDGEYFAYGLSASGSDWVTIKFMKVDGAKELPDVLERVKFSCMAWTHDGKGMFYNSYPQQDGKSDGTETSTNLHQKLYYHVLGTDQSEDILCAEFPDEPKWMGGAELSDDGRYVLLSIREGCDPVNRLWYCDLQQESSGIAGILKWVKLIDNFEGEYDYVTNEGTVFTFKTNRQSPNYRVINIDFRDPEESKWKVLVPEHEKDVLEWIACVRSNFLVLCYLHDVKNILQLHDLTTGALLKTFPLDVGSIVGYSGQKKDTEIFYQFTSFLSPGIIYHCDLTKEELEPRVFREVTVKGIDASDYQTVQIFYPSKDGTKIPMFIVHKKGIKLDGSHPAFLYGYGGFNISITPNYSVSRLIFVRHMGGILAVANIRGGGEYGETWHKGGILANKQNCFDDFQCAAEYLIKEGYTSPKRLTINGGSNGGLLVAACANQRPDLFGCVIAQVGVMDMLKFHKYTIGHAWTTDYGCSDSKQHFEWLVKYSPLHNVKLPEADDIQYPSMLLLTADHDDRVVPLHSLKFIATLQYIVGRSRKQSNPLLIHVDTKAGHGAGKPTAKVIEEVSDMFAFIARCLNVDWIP
Procedure, shortened: as §1

recombinant human DPP7 = biological target: T5, recombinant human DPP7 (Homo sapiens, UniProt Q9UHL4); experiment: DPP7 inhibition, fluorogenic substrate Lys-Pro-AMC
T5 construct: purchased R&D Systems
Procedure, shortened: as §1

[1] = 25° C., H-Gly-Pro-AMC substrate
[2] = 25° C., Z-Gly-Pro-AMC substrate
[3] = 25° C., Z-Ala-Pro-AMC substrate
[4] = recombinant human FAP, substrate Z-Gly-Pro-AMC

DPP4, sequence (P27487 whole entry): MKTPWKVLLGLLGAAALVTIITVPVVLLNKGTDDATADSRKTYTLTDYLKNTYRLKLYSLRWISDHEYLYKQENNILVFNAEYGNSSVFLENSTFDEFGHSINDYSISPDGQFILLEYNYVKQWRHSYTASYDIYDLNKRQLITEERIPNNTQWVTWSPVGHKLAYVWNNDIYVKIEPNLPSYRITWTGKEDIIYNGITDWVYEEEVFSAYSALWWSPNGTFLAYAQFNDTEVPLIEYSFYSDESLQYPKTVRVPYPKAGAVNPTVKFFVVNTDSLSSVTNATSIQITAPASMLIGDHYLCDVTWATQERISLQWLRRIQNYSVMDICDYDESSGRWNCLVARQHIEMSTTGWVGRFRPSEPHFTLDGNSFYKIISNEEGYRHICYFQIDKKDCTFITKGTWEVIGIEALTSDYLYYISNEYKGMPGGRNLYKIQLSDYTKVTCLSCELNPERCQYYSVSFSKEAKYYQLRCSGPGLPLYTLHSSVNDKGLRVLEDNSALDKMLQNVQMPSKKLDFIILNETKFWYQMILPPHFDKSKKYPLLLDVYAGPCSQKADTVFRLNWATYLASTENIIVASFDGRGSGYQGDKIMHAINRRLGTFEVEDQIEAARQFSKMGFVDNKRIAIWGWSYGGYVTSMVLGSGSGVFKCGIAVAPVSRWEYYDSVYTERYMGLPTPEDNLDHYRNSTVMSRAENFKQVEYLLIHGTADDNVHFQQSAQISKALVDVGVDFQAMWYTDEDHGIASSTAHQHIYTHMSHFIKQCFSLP
T3 sequence (Q6V1X1 whole entry): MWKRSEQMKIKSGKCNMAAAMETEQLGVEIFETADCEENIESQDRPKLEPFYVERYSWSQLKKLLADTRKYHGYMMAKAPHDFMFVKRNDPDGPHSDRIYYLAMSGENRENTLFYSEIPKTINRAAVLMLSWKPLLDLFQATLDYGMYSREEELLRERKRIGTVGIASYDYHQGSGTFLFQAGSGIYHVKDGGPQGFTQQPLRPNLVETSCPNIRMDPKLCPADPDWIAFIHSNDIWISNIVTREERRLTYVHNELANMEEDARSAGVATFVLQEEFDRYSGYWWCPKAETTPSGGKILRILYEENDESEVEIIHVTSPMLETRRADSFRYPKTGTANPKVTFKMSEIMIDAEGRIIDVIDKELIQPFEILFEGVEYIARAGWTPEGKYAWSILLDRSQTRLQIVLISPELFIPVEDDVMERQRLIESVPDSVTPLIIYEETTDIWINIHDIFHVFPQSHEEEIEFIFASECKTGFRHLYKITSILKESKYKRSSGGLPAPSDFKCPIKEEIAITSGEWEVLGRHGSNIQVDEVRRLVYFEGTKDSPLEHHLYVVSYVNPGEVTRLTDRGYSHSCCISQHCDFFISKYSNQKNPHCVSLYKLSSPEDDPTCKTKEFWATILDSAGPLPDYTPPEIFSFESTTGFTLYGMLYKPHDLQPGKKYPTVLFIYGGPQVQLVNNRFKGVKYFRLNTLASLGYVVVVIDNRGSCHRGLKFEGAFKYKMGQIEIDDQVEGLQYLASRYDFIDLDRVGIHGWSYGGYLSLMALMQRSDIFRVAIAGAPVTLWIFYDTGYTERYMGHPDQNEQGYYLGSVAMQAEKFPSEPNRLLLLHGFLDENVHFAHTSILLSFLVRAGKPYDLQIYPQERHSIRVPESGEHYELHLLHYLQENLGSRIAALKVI
T1 sequence (Q86TI2 whole entry): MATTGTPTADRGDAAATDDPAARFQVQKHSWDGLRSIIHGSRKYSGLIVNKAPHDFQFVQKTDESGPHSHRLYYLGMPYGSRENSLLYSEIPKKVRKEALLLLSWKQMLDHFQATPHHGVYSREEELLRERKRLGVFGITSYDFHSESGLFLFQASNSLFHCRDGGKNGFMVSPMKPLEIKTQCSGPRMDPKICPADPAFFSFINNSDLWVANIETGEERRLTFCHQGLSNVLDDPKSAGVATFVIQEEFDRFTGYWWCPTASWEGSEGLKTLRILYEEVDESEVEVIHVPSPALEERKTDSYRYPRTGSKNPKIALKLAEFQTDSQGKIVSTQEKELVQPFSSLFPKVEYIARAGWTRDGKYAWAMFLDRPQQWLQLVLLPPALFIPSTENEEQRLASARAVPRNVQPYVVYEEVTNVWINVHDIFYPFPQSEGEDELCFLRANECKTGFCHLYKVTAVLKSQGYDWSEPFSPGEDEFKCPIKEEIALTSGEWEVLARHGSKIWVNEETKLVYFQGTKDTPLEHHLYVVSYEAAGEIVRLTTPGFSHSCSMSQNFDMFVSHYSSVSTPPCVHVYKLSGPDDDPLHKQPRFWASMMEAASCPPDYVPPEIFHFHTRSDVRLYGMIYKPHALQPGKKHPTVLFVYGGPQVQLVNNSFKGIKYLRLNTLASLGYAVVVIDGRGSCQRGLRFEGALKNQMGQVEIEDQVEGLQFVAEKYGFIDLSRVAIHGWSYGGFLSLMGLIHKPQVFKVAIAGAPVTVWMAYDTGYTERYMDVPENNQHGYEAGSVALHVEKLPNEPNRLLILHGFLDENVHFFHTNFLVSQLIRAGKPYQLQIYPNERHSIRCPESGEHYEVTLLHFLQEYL

Row | Compound | pIC50 (DPP4; [1]) | pIC50 (recombinant human DPP9; [1]) | pIC50 (Recombinant human FAP; [2]) | pIC50 (recombinant human DPP8; [3]) | IC50 (recombinant human PREP; [2]) | pIC50 (recombinant human DPP7) | pIC50 (DPP4; recombinant human DPP4) | pIC50 (recombinant human DPP9; recombinant human DPP9) | pIC50 (Recombinant human FAP; [4]) | pIC50 (recombinant human DPP8; recombinant human DPP8) | IC50 (recombinant human PREP; recombinant human PREP) | pIC50 (recombinant human DPP7; recombinant human DPP7)
1 | COc1cc2nccc(OC3CCN(CC(=O)N4C[C@@H](F)C[C@H]4C#N)CC3)c2cc1OC [Example 130, (2S,4S)-1-(2-(4-((6,7-dimethoxyquinolin-4-yl)oxy)piperidin-1-yl)acetyl)-4-fluoropyrrolidine-2-carbonitrile] | < 5.00 | 5.22 | 8.90 | 4.98 | 2340 nM | 6.04 | – | – | – | – | – | –
2 | Cc1cnc2cccc(NC3CCN(CC(=O)N4C[C@@H](F)C[C@H]4C#N)CC3)c2c1 [Example 131, (2S,4S)-4-fluoro-1-(2-(4-((3-methylquinolin-5-yl)amino)piperidin-1-yl)acetyl)pyrrolidine-2-carbonitrile] | 5.46 | 5.56 | 8.56 | 5.08 | 7920 nM | 6.21 | – | – | – | – | – | –
3 | COc1cc(NC2CCN(CC(=O)N3C[C@@H](F)C[C@H]3C#N)CC2)c2cccnc2c1 [Example 133, (2S,4S)-4-fluoro-1-(2-(4-((7-methoxyquinolin-5-yl)amino)piperidin-1-yl)acetyl)pyrrolidine-2-carbonitrile] | 5.22 | 5.22 | 8.63 | 5.19 | 2600 nM | 6.82 | – | – | – | – | – | –
4 | COc1ccc(NC2CCN(CC(=O)N3C[C@@H](F)C[C@H]3C#N)CC2)c2cccnc12 [Example 135, (2S,4S)-4-fluoro-1-(2-(4-((8-methoxyquinolin-5-yl)amino)piperidin-1-yl)acetyl)pyrrolidine-2-carbonitrile] | 5.38 | 5.46 | 8.46 | 5.24 | 4990 nM | 5.99 | – | – | – | – | – | –
5 | COc1ccc2c(C(=O)N[C@H]3CCN(CC(=O)N4C[C@@H](F)C[C@H]4C#N)C3)coc2c1 [Example 136, 6-methoxy-N-[(3S)-1-[2-oxo-2-[(2S,4S)-2-cyano-4-fluoro-pyrrolidin-1-yl]ethyl]pyrrolidin-3-yl]benzofuran-3-carboxamide] | 5.04 | 4.84 | 7.91 | 4.65 | 5150 nM | 5.71 | – | – | – | – | – | –
6 | N#C[C@@H]1CCCN1C(=O)CN1CC[C@H](Nc2cnc3ccccc3c2)C1 [Example 229, (2S)-1-[2-[(3S)-3-(3-quinolylamino)pyrrolidin-1-yl]acetyl]pyrrolidine-2-carbonitrile] | – | – | – | – | – | – | < 5.00 | 4.44 | 7.77 | < 4.00 | 4840 nM | 5.94
7 | N#Cc1ccc2c(N[C@H]3CCN(CC(=O)N4CCC[C@H]4C#N)C3)cccc2n1 [Example 231, 5-[[(3S)-1-[2-oxo-2-[(2S)-2-cyanopyrrolidin-1-yl]ethyl]pyrrolidin-3-yl]amino]quinoline-2-carbonitrile] | – | – | – | – | – | – | < 5.00 | 4.67 | 9.00 | 4.90 | 11500 nM | 5.82
8 | N#C[C@@H]1CCCN1C(=O)CN1CC[C@H](Nc2cccc3ncc(Cl)cc23)C1 [Example 235, (2S)-1-[2-[(3S)-3-[(3-chloro-5-quinolyl)amino]pyrrolidin-1-yl]acetyl]pyrrolidine-2-carbonitrile] | – | – | – | – | – | – | < 5.00 | 4.75 | 9.15 | 4.63 | 8460 nM | 5.55

The remaining lines, values ahead:

Row | pIC50 (DPP4; [1]) | pIC50 (recombinant human DPP9; [1]) | pIC50 (Recombinant human FAP; [2]) | pIC50 (recombinant human DPP8; [3]) | IC50 (recombinant human PREP; [2]) | pIC50 (recombinant human DPP7) | pIC50 (DPP4; recombinant human DPP4) | pIC50 (recombinant human DPP9; recombinant human DPP9) | pIC50 (Recombinant human FAP; [4]) | pIC50 (recombinant human DPP8; recombinant human DPP8) | IC50 (recombinant human PREP; recombinant human PREP) | pIC50 (recombinant human DPP7; recombinant human DPP7) | Compound
9 | 5.13 | 5.44 | 8.66 | 4.86 | 2820 nM | 6.31 | – | – | – | – | – | – | N#C[C@@H]1C[C@H](F)CN1C(=O)CN1CCC(Nc2cc(F)cc3ncccc23)CC1 [Example 132, (2S,4S)-4-fluoro-1-(2-(4-((7-fluoroquinolin-5-yl)amino)piperidin-1-yl)acetyl)pyrrolidine-2-carbonitrile]
10 | – | – | – | – | – | – | < 5.00 | 4.76 | 8.03 | < 4.00 | 8770 nM | 5.87 | N#C[C@@H]1CCCN1C(=O)CN1CC[C@H](Nc2ccc3ncccc3c2)C1 [Example 230, (2S)-1-[2-[(3S)-3-(6-quinolylamino)pyrrolidin-1-yl]acetyl]pyrrolidine-2-carbonitrile]
11 | – | – | – | – | – | – | < 5.00 | 4.72 | 8.82 | < 4.00 | 8900 nM | 5.46 | N#C[C@@H]1CCCN1C(=O)CN1CC[C@H](Nc2cc(F)cc3ncccc23)C1 [Example 236, (2S)-1-[2-[(3S)-3-[(7-fluoro-5-quinolyl)amino]pyrrolidin-1-yl]acetyl]pyrrolidine-2-carbonitrile]
12 | – | – | – | – | – | – | 5.03 | 4.46 | 8.82 | 4.65 | 6600 nM | 6.13 | COc1cc(N[C@H]2CCN(CC(=O)N3CCC[C@H]3C#N)C2)c2cccnc2c1 [Example 237, (2S)-1-[2-[(3S)-3-[(7-methoxy-5-quinolyl)amino]pyrrolidin-1-yl]acetyl]pyrrolidine-2-carbonitrile]
13 | – | – | – | – | – | – | < 5.00 | 4.53 | 8.85 | < 4.00 | 3930 nM | 5.66 | N#C[C@@H]1CCCN1C(=O)CN1CC[C@H](Nc2cc(C(F)(F)F)cc3ncccc23)C1 [Example 238, (2S)-1-[2-[(3S)-3-[[7-(trifluoromethyl)-5-quinolyl]amino]pyrrolidin-1-yl]acetyl]pyrrolidine-2-carbonitrile]
14 | – | – | – | – | – | – | < 5.00 | 4.36 | 8.22 | 4.13 | 9980 nM | 5.14 | Cc1ccc2ncccc2c1N[C@H]1CCN(CC(=O)N2CCC[C@H]2C#N)C1 [Example 239, (2S)-1-[2-[(3S)-3-[(6-methyl-5-quinolyl)amino]pyrrolidin-1-yl]acetyl]pyrrolidine-2-carbonitrile]
15 | – | – | – | – | – | – | < 5.00 | 4.32 | 8.35 | 4.11 | 13000 nM | 4.77 | N#C[C@@H]1CCCN1C(=O)CN1CC[C@H](Nc2c(F)ccc3ncccc23)C1 [Example 241, (2S)-1-[2-[(3S)-3-[(6-fluoro-5-quinolyl)amino]pyrrolidin-1-yl]acetyl]pyrrolidine-2-carbonitrile]
16 | – | – | – | – | – | – | < 5.00 | 4.71 | 8.77 | 4.96 | 8440 nM | 5.77 | Cc1ccc(N[C@H]2CCN(CC(=O)N3CCC[C@H]3C#N)C2)c2cccnc12 [Example 242, (2S)-1-[2-[(3S)-3-[(8-methyl-5-quinolyl)amino]pyrrolidin-1-yl]acetyl]pyrrolidine-2-carbonitrile]

Source: patent US11655235B2, “Pyrrolidine and piperidine compounds” (YUHAN CORPORATION, priority 2019, dated 2023)
